Assay results as given in PMC7311426, “An amphipathic peptide with antibiotic activity against multidrug-resistant Gram-negative bacteria” (Nature Communications, 2020).
Values after ≈ are worked out from the molar mass of the structure shown. Like-named read-outs stand apart in the source and are kept apart here.

Columns and labels:
Assay in all cases: microbe, parasite or virus in culture
[1] = tested on: K. pneumoniae; details: Klebsiella pneumoniae
Outline: (§1)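 Broth microdilution in MHB, 2-fold 12-point series from 128 or 64 down to 0.06 or 0.03 μg mL^−1, 5 × 10^5 CFU mL^−1. Extra runs in CAMHB per CLSI and in MHB with 1% agarose; n ≥ 6.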

[2] = tested on: P. aeruginosa; details: Pseudomonas aeruginosa
Outline: as §1

[3] = tested on: A. baumannii clinical isolates
Protocol: The in vitro activity of AA139 and comparator antimicrobials was determined in two panels of clinical isolates of E. coli, K. pneumoniae, P. aeruginosa, and A. baumannii (Supplementary Table 3), and MIC90 presented. The US panel consisted of 331 clinical isolates from 2010 to 2012. It was tested by BMD in accordance with the CLSI guidelines (M07-A9, 2012)[39]. […] AA139 was diluted in 0.01% acetic acid/0.1% bovine serum albumin. Sterile polypropylene culture cluster round-bottom 96-well plates (Costar # 3879) were used for testing. The worldwide panel consisted of 445 clinical isolates from 2011 to 2013, geographically divided into Asia, Europe, North America, and Rest of World (Middle East, Latin America, Africa, and South Pacific) with each region representing ~25% of the isolates. It was tested by broth microdilution in accordance with the CLSI guidelines (M07-A9, 2012)[39]. […] The test media was CAMHB (Becton Dickinson). AA139 and polymyxin B were tested in media supplemented with 0.002% Tween 80 (Calbiochem). MIC90 values were calculated for all or subsets of the isolates. MIC correlation between AA139 and colistin was analyzed with data from the US panel.

[4] = A. baumannii, worldwide isolates 2011-2013, n = 108

Q: What does the source list for `C[C@H]1COc2c(N3CCN(C)CC3)c(F)cc3c(=O)c(C(=O)O)cn1c23` [LEV, levofloxacin, reference compound]?
A: MIC ([1]; read-out: MIC, broth microdilution, K. pneumoniae 3010 spontaneous mutant, AA139 selection 4X, plate 1, colony 1, drug-free passage 1): 0.06 µg/mL (≈ 0.166 µM); MIC ([1]; read-out: MIC, broth microdilution, K. pneumoniae 3010 spontaneous mutant, AA139 selection 4X, plate 1, colony 1, drug-free passage 5): 0.06 µg/mL (≈ 0.166 µM); MIC ([1]; read-out: MIC, broth microdilution, K. pneumoniae 3010 spontaneous mutant, AA139 selection 8X, plate 1, colony 1, drug-free passage 1): 0.06 µg/mL (≈ 0.166 µM); MIC ([1]; read-out: MIC, broth microdilution, K. pneumoniae 3010 spontaneous mutant, AA139 selection 8X, plate 1, colony 1, drug-free passage 5): 0.06 µg/mL (≈ 0.166 µM); MIC ([2]; ATCC27853, read-out: MIC, broth microdilution, P. aeruginosa ATCC 27853 spontaneous mutant, AA139 selection 4X, plate 1, colony 2, drug-free passage 1): 2 µg/mL (≈ 5.53 µM); MIC ([2]; ATCC27853, read-out: MIC, broth microdilution, P. aeruginosa ATCC 27853 spontaneous mutant, AA139 selection 4X, plate 1, colony 3, drug-free passage 5): 2 µg/mL (≈ 5.53 µM); MIC ([2]; ATCC27853, read-out: MIC, broth microdilution, P. aeruginosa ATCC 27853 spontaneous mutant, AA139 selection 4X, plate 1, colony 4, drug-free passage 1): 2 µg/mL (≈ 5.53 µM); MIC ([2]; ATCC27853, read-out: MIC, broth microdilution, P. aeruginosa ATCC 27853 spontaneous mutant, AA139 selection 4X, plate 1, colony 5, drug-free passage 1): 2 µg/mL (≈ 5.53 µM); MIC ([2]; ATCC27853, read-out: MIC, broth microdilution, P. aeruginosa ATCC 27853 spontaneous mutant, AA139 selection 4X, plate 1, colony 5, drug-free passage 5): 2 µg/mL (≈ 5.53 µM); MIC ([2]; ATCC27853, read-out: MIC, broth microdilution, P. aeruginosa ATCC 27853 spontaneous mutant, AA139 selection 4X, plate 1, colony 6, drug-free passage 1): 2 µg/mL (≈ 5.53 µM); MIC ([2]; ATCC27853, read-out: MIC, broth microdilution, P. aeruginosa ATCC 27853 spontaneous mutant, AA139 selection 4X, plate 2, colony 1, drug-free passage 1): 2 µg/mL (≈ 5.53 µM); MIC ([2]; ATCC27853, read-out: MIC, broth microdilution, P. aeruginosa ATCC 27853 spontaneous mutant, AA139 selection 4X, plate 2, colony 2, drug-free passage 1): 2 µg/mL (≈ 5.53 µM); MIC ([2]; ATCC27853, read-out: MIC, broth microdilution, P. aeruginosa ATCC 27853 spontaneous mutant, AA139 selection 8X, plate 1, colony 1, drug-free passage 5): 2 µg/mL (≈ 5.53 µM); MIC ([2]; ATCC27853, read-out: MIC, broth microdilution, P. aeruginosa ATCC 27853 spontaneous mutant, AA139 selection 8X, plate 1, colony 2, drug-free passage 1): 2 µg/mL (≈ 5.53 µM); MIC ([2]; read-out: MIC, broth microdilution, P. aeruginosa UNT 138-1 spontaneous mutant, AA139 selection 4X, plate 1, colony 1, drug-free passage 1): 2 µg/mL (≈ 5.53 µM); MIC50 [3, 4]: 16 µg/mL (≈ 44.3 µM); MIC90 [3, 4]: > 32 µg/mL; Number of isolates with MIC 0.03 (MIC frequency distribution) ([3]; A. baumannii, worldwide isolates 2011-2013, n = 108, count of isolates at MIC 0.03): 1; Number of isolates with MIC 0.06 (MIC frequency distribution) ([3]; A. baumannii, worldwide isolates 2011-2013, n = 108, count of isolates at MIC 0.06): 4; Number of isolates with MIC 0.125 (MIC frequency distribution) ([3]; A. baumannii, worldwide isolates 2011-2013, n = 108, count of isolates at MIC 0.125): 8; Number of isolates with MIC 0.25 (MIC frequency distribution) ([3]; A. baumannii, worldwide isolates 2011-2013, n = 108, count of isolates at MIC 0.25): 2; Number of isolates with MIC 0.5 (MIC frequency distribution) ([3]; A. baumannii, worldwide isolates 2011-2013, n = 108, count of isolates at MIC 0.5): 3; Number of isolates with MIC 1 (MIC frequency distribution) ([3]; A. baumannii, worldwide isolates 2011-2013, n = 108, count of isolates at MIC 1): 0; Number of isolates with MIC 2 (MIC frequency distribution) ([3]; A. baumannii, worldwide isolates 2011-2013, n = 108, count of isolates at MIC 2): 0; Number of isolates with MIC 4 (MIC frequency distribution) ([3]; A. baumannii, worldwide isolates 2011-2013, n = 108, count of isolates at MIC 4): 6; Number of isolates with MIC 8 (MIC frequency distribution) ([3]; A. baumannii, worldwide isolates 2011-2013, n = 108, count of isolates at MIC 8): 22; Number of isolates with MIC 16 (MIC frequency distribution) ([3]; A. baumannii, worldwide isolates 2011-2013, n = 108, count of isolates at MIC 16): 20; Number of isolates with MIC 32 (MIC frequency distribution) ([3]; A. baumannii, worldwide isolates 2011-2013, n = 108, count of isolates at MIC 32): 19; Number of isolates with MIC 64 (MIC frequency distribution) ([3]; A. baumannii, worldwide isolates 2011-2013, n = 108, count of isolates at MIC 64): 0; Number of isolates with MIC 128 (MIC frequency distribution) ([3]; A. baumannii, worldwide isolates 2011-2013, n = 108, count of isolates at MIC 128): 0; Number of isolates with MIC >16 (MIC frequency distribution) ([3]; A. baumannii, worldwide isolates 2011-2013, n = 108, count of isolates at MIC >16): 0; Number of isolates with MIC >32 (MIC frequency distribution) ([3]; A. baumannii, worldwide isolates 2011-2013, n = 108, count of isolates at MIC >32): 23; Number of isolates with MIC >128 (MIC frequency distribution) ([3]; A. baumannii, worldwide isolates 2011-2013, n = 108, count of isolates at MIC >128): 0; Number of isolates with MIC ≤0.015 (MIC frequency distribution) ([3]; A. baumannii, worldwide isolates 2011-2013, n = 108, count of isolates at MIC ≤0.015): 0; MIC90 ([3]; Acinetobacter baumannii): > 32 µg/mL
